Reference: patent publication US20200197365A1, “TREATMENT WITH NMDA RECEPTOR MODULATORS” (Naurex Inc., priority 2017, published 2020)
Residues, ends and D or L forms follow the SMILES beside them.

System: Male rats
Assay: Sleep-wake cycle analysis by telemetric EEG recording (23 hours) in rats
Type: in vivo, rat
Conditions: for latency to SWS onset (change): FIG. 1A; for latency to REM sleep onset (change): FIG. 1B
Experimental: Male rats were anesthetized and surgically implanted with 2 surface electrodes in the frontoparietal cortex and 2 depth electrodes in the CA1 region of the hippocampus (AP+5.0 mm, L±2.5 mm, V+7.0 mm). After ≥10 days recovery, telemetric transmitters were connected to electrodes for electroencephalographic (EEG) recordings. On the day of experiment, rats were injected at the beginning of the light phase with rapastinel (3, 10, or 30 mg/kg, IV), ketamine (30 mg/kg, IP), or the positive control zolpidem (12 mg/kg, PO) using a treatment schedule based on a cross-over design (n=9-10/dose/group) in which rats received zolpidem or rapastinel at session 1 and then rapastinel and/or ketamine at sessions 2-4. Physiological saline was used as the vehicle control
Sleep-wake cycles were measured continuously following rapastinel treatment for the next 23 hours and were analyzed based on a spectral power analysis. Latencies to first occurrence of SWS and REM sleep, as well as percent time spent in SWS, REM sleep, and wakefulness, were calculated for the total recording sessions (23 hours), the half cycles (0-12 and 12-23 hours), and 5 time segments (0-4, 4-8, 8-12, 12-18, and 18-23 hours). Depth of SWS (defined as the ratio between alpha and delta spectral power) was also calculated. Differences between vehicle and test drugs were calculated for all variables, for each animal, and for the means of the animals per treatment group, and analyzed using a paired t-test

[1] = ketamine 30 mg/kg IP, 12-23 hours post-dose, P<0.05
[2] = rapastinel, entire recording session, FIG. 2

With CNC1(c2ccccc2Cl)CCCCC1=O (centres unmarked) [Ketamine, ketamine] the “alpha/delta ratio (depth of SWS)” value (ketamine 30 mg/kg IP, 0-4 hours post-dose) was “concomitant decrease”, the “duration of SWS” value (ketamine 30 mg/kg IP, 0-4 hours post-dose, FIG. 2A) was “decreased” and the “duration of REM sleep” value (ketamine 30 mg/kg IP, 0-4 hours post-dose, P<0.001) was “decreased”. For the same compound, the “waking (duration)” value (ketamine 30 mg/kg IP, 12-23 hours post-dose, P<0.01) was “small but significant decrease”, the “REM sleep (duration)” value [1] was “compensatory increase” and the SWS duration [1] was “significantly increased”. The “percentage of active waking” value [1] was “significantly decreased”, the “latency to SWS onset (change)” value (ketamine 30 mg/kg IP, P<0.001) was “+393%” and the “latency to REM sleep onset (change)” value (ketamine 30 mg/kg IP, P<0.001) was “+104%”. For the same compound, the duration of waking (ketamine 30 mg/kg IP, first 4 hours post-dose, P<0.001) was “significantly increased”.

With C[C@@H](O)[C@H](N)C(=O)N1CCC[C@H]1C(=O)N1CCC[C@H]1C(=O)N[C@H](C(N)=O)[C@@H](C)O [Rapastinel, rapastinel] (H-TPPT-NH2) the “latency to SWS onset (change)” value (rapastinel 3 mg/kg IV, P<0.05) was −33%, the “percentage of active waking” value (rapastinel 30 mg/kg IV, 8-12 hours post-dose, P<0.01) was “small but significant decrease” and the “percentage of active waking” value (rapastinel 30 mg/kg IV, 18-23 hours post-dose, P<0.05) was “small but significant decrease”. For the same compound, the “latency to REM sleep onset” value (rapastinel 3, 10, and 30 mg/kg IV) was “no significant effect”, the “duration of REM sleep” value (rapastinel 3, 10, and 30 mg/kg IV, FIG. 3) was “did not have a significant effect” and the duration of waking (rapastinel 3, 10, or 30 mg/kg IV, FIG. 4A) was “no effect”. The “latency to SWS onset” value (rapastinel 10 and 30 mg/kg IV) was “no significant effect”, the “percentage of active waking” value (rapastinel, all doses and time segments other than the 30 mg/kg exceptions, FIG. 4B) was “no effect” and the “depth of SWS” value [2] was “no significant effect”. The “duration of SWS” value [2] was “no significant effect”.

With Cc1ccc(-c2nc3ccc(C)cn3c2CC(=O)N(C)C)cc1 [Zolpidem, zolpidem] the “percentage of active waking” value (zolpidem 12 mg/kg PO, 0-12 hours post-dose, P<0.05) was “significantly decreased”, the “duration of REM sleep” value (zolpidem 12 mg/kg PO, 4-8 hours post-dose, P<0.05) was “significantly decreased” and the “depth of SWS” value (zolpidem 12 mg/kg PO, >8 hours post-dose, P<0.05, FIG. 2B) was “significantly increased”. For the same compound, the duration of waking (zolpidem 12 mg/kg PO, FIG. 4A) was “no effect”, the “latency to REM sleep onset (change)” value (zolpidem 12 mg/kg PO, P<0.01) was “+67%” and the “latency to SWS onset (change)” value (zolpidem 12 mg/kg PO, P<0.05) was −50%.
